Test results reported in US11492405B2, “Reducing systemic regulatory t cell levels or activity for treatment of disease and injury of the CNS” (Yeda Research and Development Co. Ltd, priority 2014, dated 2022).
Entries after “also recorded” stand apart in the source; their conditions may differ.

What was measured:
[1] = tested on: aged mice (18 months); test: p300 inhibition in aged mice, flow cytometry of spleen and CP; type: in vivo, mouse; details: p300i 8.9 mg/kg/d i.p. for 1 week vs DMSO, examined a day after cessation
Experimental: Mice were transcardially perfused with PBS, and tissues were treated as previously described (Baruch et al, 2013). Brains were dissected and the different brain regions were removed under a dissecting microscope (Stemi DV4; Zeiss) in PBS, and tissues were dissociated using the gentleMACS™ dissociator (Miltenyi Biotec). Choroid plexus tissues were isolated from the lateral, third and fourth ventricles of the brain, incubated at 37° C. for 45 min in PBS (with Ca^2+/Mg^2+) containing 400 U/ml collagenase type IV (Worthington Biochemical Corporation), and then manually homogenized by pipetting. Spleens were mashed with the plunger of a syringe and treated with ACK (ammonium chloride potassium) lysing buffer to remove erythrocytes. In all cases, samples were stained according to the manufacturers' protocols. All samples were filtered through a 70 μm nylon mesh, and blocked with anti-Fc CD16/32 (1:100; BD Biosciences). For intracellular staining of IFN-γ, the cells were incubated with […] (10 ng/ml; Sigma-Aldrich) and ionomycin (250 ng/ml; Sigma-Aldrich) for 6 h, and Brefeldin-A (10 μg/ml; Sigma-Aldrich) was added for the last 4 h. Intracellular labeling of cytokines was done with BD Cytofix/Cytoperm™ Plus fixation/permeabilization kit (cat. no. 555028). […] Cells were analyzed on an LSRII cytometer (BD Biosciences) using FlowJo software. […]

[2] = tested on: 5XFAD AD-Tg mice; test: Aβ plaque quantitation (immunohistochemistry) in 5XFAD AD-Tg mice; type: in vivo, mouse
Experimental: Tissue processing and immunohistochemistry were performed on paraffin embedded sectioned mouse (6 μm thick) and human (10 μm thick) brains. For human ICAM-1 staining, primary mouse anti-ICAM (1:20 Abcam; ab2213) antibody was used. Slides were incubated for 10 min with 3% H2O2, and a secondary biotin-conjugated anti-mouse antibody was used, followed by biotin/avidin amplification with Vectastain ABC kit (Vector Laboratories). Subsequently, 3,3′-diaminobenzidine (DAB substrate) (Zytomed kit) was applied; slides were dehydrated and mounted with xylene-based mounting solution. For tissue stainings, mice were transcardially perfused with PBS prior to tissue excision and fixation. CP tissues were isolated under a dissecting microscope (Stemi DV4; Zeiss) from the lateral, third, and fourth ventricles of the brain. For whole mount CP staining, tissues were fixated with 2.5% paraformaldehyde (PFA) for 1 hour at 4° C., and subsequently transferred to PBS containing 0.05% sodium azide. Prior to staining, the dissected tissues were washed with PBS and blocked (20% horse serum, 0.3% Triton X-100, and PBS) for 1 h at room temperature. Whole mount staining with primary antibodies (in PBS containing 2% horse serum and 0.3% Triton X-100), or secondary antibodies, was performed for 1 h at room temperature. Each step was followed by three washes in PBS. The tissues were applied to slides, mounted with Immu-mount (9990402, from Thermo Scientific), and sealed with cover-slips. For staining of sectioned brains, two different tissue preparation protocols (paraffin embedded or microtomed free-floating sections) were applied, as previously described (Baruch et al, 2013; Kunis et al, 2013). […] Microscopic analysis, was performed using a fluorescence microscope (E800; Nikon) or laser-scanning confocal microscope (Carl Zeiss, Inc.). The fluorescence microscope was equipped with a digital camera (DXM 1200F; Nikon), and with either a 20×NA 0.50 or 40×NA 0.75 objective lens (Plan Fluor; Nikon). […] For quantification of staining intensity, total cell and background staining was measured using ImageJ software (NIH), and intensity of specific staining was calculated, as previously described (Burgess et al, 2010). […]
From each brain, 6 μm coronal slices were collected, and eight sections per mouse, from four different pre-determined depths throughout the region of interest (dentate gyrus or cerebral cortex) were immunostained. […]

[3] = tested on: 5XFAD AD-Tg mice; test: Soluble Aβ (sAβ) ELISA of cerebral brain parenchyma in AD-Tg mice; type: in vivo, mouse
Experimental: Inhibition of p300 in mice was performed similarly to previously described (Liu et al, 2013). p300i (C646; Tocris Bioscience) was dissolved in DMSO and injected i.p. daily (8.9 mg kg^−1 d^−1, i.p.) for 1 week. Vehicle-treated mice were similarly injected with DMSO.
Tissue homogenization and sAβ protein extraction was performed as previously described (Schmidt et al, 2005). Briefly, cerebral brain parenchyma was dissected and snap-frozen and kept at −80° C. until homogenization. Proteins were sequentially extracted from samples to obtain separate fractions containing proteins of differing solubility. Samples were homogenized in 10 volumes of ice-cold tissue homogenization buffer, containing 250 mM of sucrose, 20 mM of Tris base, 1 mM of ethylenediaminetetraacetic acid (EDTA), and 1 mM of ethylene glycol tetraacetic acid (pH 7.4), using a ground glass pestle in a Dounce homogenizer. After six strokes, the homogenate was mixed 1:1 with 0.4% diethylamine (DEA) in a 100-mM NaCl solution before an additional six strokes, and then centrifuged at 135,000 g at 4° C. for 45 min. The supernatant (DEA-soluble fraction containing extracellular and cytosolic proteins) was collected and neutralized with 10% of 0.5M of Tris-HCl (pH 6.8). Aβ1-40 and Aβ1-42 were individually measured by enzyme-linked immunosorbent assay (ELISA) from the soluble fraction using commercially available kits (Biolegend; #SIG-38954 and #SIG-38956, respectively) according to the manufacturer instructions.

[4] = target: p300 (Mus musculus, UniProt B2RWS6); details: Liu et al, 2013; cited from earlier work
Sequence of p300 (B2RWS6 whole entry): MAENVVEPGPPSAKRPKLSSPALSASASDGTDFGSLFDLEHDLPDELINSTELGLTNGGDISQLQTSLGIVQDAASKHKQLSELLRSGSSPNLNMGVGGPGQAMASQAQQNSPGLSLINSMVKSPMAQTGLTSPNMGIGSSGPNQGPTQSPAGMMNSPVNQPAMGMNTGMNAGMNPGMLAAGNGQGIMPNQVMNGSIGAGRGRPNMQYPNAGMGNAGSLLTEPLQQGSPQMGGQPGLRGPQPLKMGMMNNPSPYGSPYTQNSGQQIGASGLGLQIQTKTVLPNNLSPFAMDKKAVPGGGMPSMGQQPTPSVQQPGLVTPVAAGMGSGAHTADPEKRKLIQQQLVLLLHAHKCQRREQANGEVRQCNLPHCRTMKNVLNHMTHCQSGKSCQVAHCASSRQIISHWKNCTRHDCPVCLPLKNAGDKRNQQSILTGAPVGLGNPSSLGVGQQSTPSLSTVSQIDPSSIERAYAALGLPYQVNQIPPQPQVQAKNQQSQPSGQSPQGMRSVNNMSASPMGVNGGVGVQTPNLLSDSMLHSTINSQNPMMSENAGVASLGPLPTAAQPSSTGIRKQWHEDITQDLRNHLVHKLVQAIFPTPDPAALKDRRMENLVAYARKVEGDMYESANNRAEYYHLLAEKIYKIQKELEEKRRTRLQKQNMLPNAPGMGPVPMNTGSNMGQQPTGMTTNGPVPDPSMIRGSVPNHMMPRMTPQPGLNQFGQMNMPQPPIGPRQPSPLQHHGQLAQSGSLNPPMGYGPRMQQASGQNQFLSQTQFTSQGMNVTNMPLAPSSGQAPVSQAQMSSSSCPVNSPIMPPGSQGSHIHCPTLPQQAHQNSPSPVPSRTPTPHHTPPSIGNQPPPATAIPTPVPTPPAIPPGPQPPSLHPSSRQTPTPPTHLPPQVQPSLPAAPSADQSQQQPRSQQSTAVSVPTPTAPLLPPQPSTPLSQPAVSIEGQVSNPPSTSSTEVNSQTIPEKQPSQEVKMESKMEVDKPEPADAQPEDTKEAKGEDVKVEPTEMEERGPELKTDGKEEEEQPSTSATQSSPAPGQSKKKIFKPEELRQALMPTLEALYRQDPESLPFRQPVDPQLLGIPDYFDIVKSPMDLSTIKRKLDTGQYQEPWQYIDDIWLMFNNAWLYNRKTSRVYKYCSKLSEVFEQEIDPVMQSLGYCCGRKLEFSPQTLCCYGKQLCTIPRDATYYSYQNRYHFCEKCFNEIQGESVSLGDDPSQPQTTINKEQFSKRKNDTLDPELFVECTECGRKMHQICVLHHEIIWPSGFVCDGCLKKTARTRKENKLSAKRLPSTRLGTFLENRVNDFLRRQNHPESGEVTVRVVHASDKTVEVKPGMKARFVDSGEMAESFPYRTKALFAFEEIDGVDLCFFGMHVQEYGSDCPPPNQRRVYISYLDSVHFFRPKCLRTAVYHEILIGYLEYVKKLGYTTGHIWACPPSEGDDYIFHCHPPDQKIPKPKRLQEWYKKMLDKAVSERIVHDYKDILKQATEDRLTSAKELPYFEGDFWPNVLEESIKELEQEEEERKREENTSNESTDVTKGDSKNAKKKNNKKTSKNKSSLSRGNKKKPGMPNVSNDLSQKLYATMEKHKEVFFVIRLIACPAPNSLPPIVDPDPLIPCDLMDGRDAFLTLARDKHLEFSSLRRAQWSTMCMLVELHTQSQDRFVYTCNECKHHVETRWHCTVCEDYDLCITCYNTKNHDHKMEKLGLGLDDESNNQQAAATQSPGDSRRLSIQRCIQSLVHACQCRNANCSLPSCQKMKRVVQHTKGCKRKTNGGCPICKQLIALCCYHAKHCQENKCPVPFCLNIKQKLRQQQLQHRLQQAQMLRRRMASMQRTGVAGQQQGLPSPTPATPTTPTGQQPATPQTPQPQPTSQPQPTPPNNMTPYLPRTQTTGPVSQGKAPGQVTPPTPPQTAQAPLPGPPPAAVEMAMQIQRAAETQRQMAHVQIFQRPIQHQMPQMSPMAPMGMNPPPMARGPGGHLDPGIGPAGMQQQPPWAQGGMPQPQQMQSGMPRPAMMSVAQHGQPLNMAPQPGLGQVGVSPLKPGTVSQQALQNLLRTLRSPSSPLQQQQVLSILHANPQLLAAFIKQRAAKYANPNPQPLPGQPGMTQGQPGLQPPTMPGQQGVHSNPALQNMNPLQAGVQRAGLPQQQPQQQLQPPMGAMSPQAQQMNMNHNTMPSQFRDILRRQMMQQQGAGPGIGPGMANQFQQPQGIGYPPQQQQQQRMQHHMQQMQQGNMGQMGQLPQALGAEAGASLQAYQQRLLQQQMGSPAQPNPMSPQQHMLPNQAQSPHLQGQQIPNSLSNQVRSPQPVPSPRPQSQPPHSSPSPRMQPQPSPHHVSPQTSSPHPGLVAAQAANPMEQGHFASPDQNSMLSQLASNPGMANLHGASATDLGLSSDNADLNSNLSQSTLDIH

CC1=NN(c2ccc(C(=O)O)cc2)C(=O)/C1=C\c1ccc(-c2cc(C)c(C)cc2[N+](=O)[O-])o1 [p300i, 4-(4-((5-(4,5-dimethyl-2-nitrophenyl)furan-2-yl)methylene)-3-methyl-5-oxo-4,5-dihydro-1H-pyrazol-1-yl)benzoic acid]
IFN-γ-expressing cells in the CP [1]: elevated levels; also recorded: elevation
IFN-γ-expressing cells in the spleen [1]: elevated levels; also recorded: elevation
cerebral Aβ plaque load ([2]; 10-month old AD-Tg mice, p300i for 1 week, examined 3 weeks later): significant reduction
reduction of cerebral plaque load ([2]; single course of p300i, examined 2 months later): evident even two months after a single course of treatment
reduction of cerebral plaque load ([2]; two courses of p300i with 1-month interval, compared with single course): stronger
cerebral sAβ (Aβ1-40/Aβ1-42) levels ([3]; one course of p300i): effective in reducing cerebral sAβ
effect on sAβ1-42 ([3]; repeated courses of p300i compared with one course): stronger
cerebral sAβ (Aβ1-40/Aβ1-42) levels ([3]; two courses of p300i with interval of 1 month): effective in reducing cerebral sAβ
effect on Treg suppressive activities [4]: affect Treg suppressive activities while leaving protective T effector cell responses intact
